Assay results published in PMC6538953, “Metal Ions Activate the Human Taste Receptor TAS2R7” (Chemical Senses, 2019).
Substitutions are numbered along the chain they refer to.

How the values were obtained:
[1] = target: T1, human TAS2R7 E264^7.32Q mutant (Homo sapiens, UniProt Q9NYW3, E264Q); assay: Calcium mobilization assay, TAS2R7 mutant E264Q; type: cell-based; details: 20 mM metal ions except 0.16 mM Al2(SO4)3; cromolyn 10 mM; Figure 6C
T1 construct: signal peptide: first 45 amino acid residues of rat somatostatin receptor 3 (N); expressed in transfected cells; host or cells: HEK293 PEAKrapid (ATCC CRL-2828), transient, co-transfected with Gα16-gust44
T1 sequence (Q9NYW3 1-318 E264Q): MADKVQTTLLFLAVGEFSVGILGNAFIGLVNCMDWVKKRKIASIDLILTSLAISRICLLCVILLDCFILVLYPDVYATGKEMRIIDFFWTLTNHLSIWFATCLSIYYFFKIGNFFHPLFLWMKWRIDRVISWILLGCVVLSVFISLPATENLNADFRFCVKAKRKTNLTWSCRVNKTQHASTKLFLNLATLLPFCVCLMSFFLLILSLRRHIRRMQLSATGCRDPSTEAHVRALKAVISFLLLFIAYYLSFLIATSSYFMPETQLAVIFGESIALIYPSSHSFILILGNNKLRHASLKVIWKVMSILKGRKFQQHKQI
Excerpt: (§1) The coding sequences of human TAS2Rs were amplified from human genomic DNA, then subcloned into pcDNA3.1(+) vector, with the herpes simplex virus glycoprotein D epitope (HSV) at the C-terminal and a signal peptide consisting of the first 45 amino acid residues of the rat somatostatin receptor 3 at the N-terminal, essentially as described previously ([Bufe et al. 2002]). Point mutations in human TAS2R7 (NCBI Reference Sequence: NP_076408.1) were constructed by site-directed mutagenesis. All the constructs were confirmed by Sanger sequencing.
(§2) Human embryonic kidney 293 (PEAKrapid, ATCC # CRL-2828) cells were cultured in Opti-MEM medium with 4% fetal bovine serum. […] After incubation, cells were washed 2 times with HBSS (including 10 mM HEPES), incubated in the dark for another 30 min, and then washed with assay solution once more before running the assay using a FlexStation III reader. Relative fluorescence units (excitation at 494 nm, emission at 516 nm, and auto cutoff at 515 nm) were read every 2 s for 2 min. Calcium mobilization traces were recorded.
(§3) Calcium mobilization traces were raw data obtained from single wells. Changes in fluorescence (ΔF) were calculated as the peak fluorescence minus baseline fluorescence ([Lei et al. 2015]). The calcium mobilization was quantified as the percentage of change (ΔF) relative to baseline (F). […]

[2] = tested on: mock-transfected HEK293 cells (Gα16-gust44 only); assay: Calcium mobilization assay, mock-transfected cells (Gα16-gust44 only); type: cell-based, human; details: any concentration tested (cromolyn 10 mM)
Description: (§4) Human embryonic kidney 293 (PEAKrapid, ATCC # CRL-2828) cells were cultured in Opti-MEM medium with 4% fetal bovine serum. One day before transfection, cells were seeded on a 96-well plate at a density of 25 000 per well. Cells were then transiently transfected with a TAS2R construct (0.1 µg/well) along with a G protein Gα16-gust44 (0.1 µg/well) construct by Lipofectamine 2000 (0.5 µl/well). For controls, only Gα16-gust44 was used (mock transfection). Twenty-four hours after transfection, cells were washed with HBSS including 10 mM HEPES and loaded with Fluo-4 in the dark for 1 h. After incubation, cells were washed 2 times with HBSS (including 10 mM HEPES), incubated in the dark for another 30 min, and then washed with assay solution once more before running the assay using a FlexStation III reader. Relative fluorescence units (excitation at 494 nm, emission at 516 nm, and auto cutoff at 515 nm) were read every 2 s for 2 min. Calcium mobilization traces were recorded.
Calcium mobilization traces were raw data obtained from single wells. Changes in fluorescence (ΔF) were calculated as the peak fluorescence minus baseline fluorescence ([Lei et al. 2015]). The calcium mobilization was quantified as the percentage of change (ΔF) relative to baseline (F). […] Calcium mobilization traces and bar graphs along with dose-dependent plots were all generated by GraphPad Prism 7. […]

human TAS2R7 = target: T2, human TAS2R7 (Homo sapiens, UniProt Q9NYW3); design: method as in Meyerhof et al. 2010; details: ref Meyerhof et al. 2010; cited from earlier work
T2 construct: first 45 residues of rat somatostatin receptor 3 (signal peptide) (N); expressed in transfected cells; host or cells: HEK293 (PEAKrapid, ATCC CRL-2828)
T2 sequence (Q9NYW3 1-318): T1 sequence (Q9NYW3 1-318 E264Q) with Q264E

[3] = target: T3, human TAS2R7 E264^7.32K mutant (Homo sapiens, UniProt Q9NYW3, E264K); assay: Calcium mobilization assay, TAS2R7 mutant E264K; type: cell-based; details: 20 mM metal ions except 0.16 mM Al2(SO4)3; cromolyn 10 mM; Figure 6B
T3 construct: signal peptide: first 45 amino acid residues of rat somatostatin receptor 3 (N); expressed in transfected cells; host or cells: HEK293 PEAKrapid (ATCC CRL-2828), transient, co-transfected with Gα16-gust44
T3 sequence (Q9NYW3 1-318 E264K): T1 sequence (Q9NYW3 1-318 E264Q) with Q264K
Excerpt: as §1, §4
Calcium mobilization traces were raw data obtained from single wells. Changes in fluorescence (ΔF) were calculated as the peak fluorescence minus baseline fluorescence ([Lei et al. 2015]). The calcium mobilization was quantified as the percentage of change (ΔF) relative to baseline (F). […] Calcium mobilization traces and bar graphs along with dose-dependent plots were all generated by GraphPad Prism 7. Analysis of variance with Dunnett’s multiple comparisons test was used for statistical analysis. *P < 0.05.
To assess the importance of these residues, we performed site-directed mutagenesis. We mutated the negatively charged residues E16^1.42, E264^7.32, and E271^7.39 to Q (glutamine), K (lysine), or L (leucine). The facing H94^3.37 was mutated to F (phenylalanine). HEK293 cells that expressed mutant receptors along with Gα16-gust44 were examined for their responses to metal ions (20 mM for all except 0.16 mM Al2(SO4)3) and cromolyn (10 mM, as a positive control) to assess receptor’s function. To determine the expression level of each receptor, we stained the wild-type or mutant receptor-transfected cells using an anti-HSV antibody since all the receptors are tagged with HSV at c-terminal. […]

[4] = target: T4, human TAS2R7 E271^7.39 to glutamine mutant (Homo sapiens, UniProt Q9NYW3, E271Q); assay: Calcium mobilization assay, TAS2R7 mutant E271Q; type: cell-based; details: 20 mM metal ions except 0.16 mM Al2(SO4)3; cromolyn 10 mM; Figure 6C
T4 construct: signal peptide: first 45 amino acid residues of rat somatostatin receptor 3 (N); expressed in transfected cells; host or cells: HEK293 PEAKrapid (ATCC CRL-2828), transient, co-transfected with Gα16-gust44
T4 sequence (Q9NYW3 1-318 E271Q): T1 sequence (Q9NYW3 1-318 E264Q) with Q264E, E271Q
Excerpt: as §1, §2, §3

O=C(O)c1cc(=O)c2c(OCC(O)COc3cccc4oc(C(=O)O)cc(=O)c34)cccc2o1 [cromolyn, reference compound]
Response of E264Q mutant receptor [1]: reduced responses
Response of mock-transfected cells [2]: not
TAS2R7 reported to respond to bitter compounds (human TAS2R7): respond
Response of E264K mutant receptor [3]: reduced
Response of E271 to glutamine mutant receptor [4]: slightly reduced responses
